Key:
human TPO receptor [1] = target: T1, human TPO receptor (Homo sapiens, UniProt P40238); assay: Proliferation of TPO-dependent cell line UT7/EPO-mpl, WST-8 reagent (Assay Example 5); format: cell-based; details: WST-8, 4 days; for Efficacy (%) (maximal growth rate): growth with 10 ng/ml TPO = 100%
T1 construct: expressed in transfected cells
T1 sequence (P40238 26-635): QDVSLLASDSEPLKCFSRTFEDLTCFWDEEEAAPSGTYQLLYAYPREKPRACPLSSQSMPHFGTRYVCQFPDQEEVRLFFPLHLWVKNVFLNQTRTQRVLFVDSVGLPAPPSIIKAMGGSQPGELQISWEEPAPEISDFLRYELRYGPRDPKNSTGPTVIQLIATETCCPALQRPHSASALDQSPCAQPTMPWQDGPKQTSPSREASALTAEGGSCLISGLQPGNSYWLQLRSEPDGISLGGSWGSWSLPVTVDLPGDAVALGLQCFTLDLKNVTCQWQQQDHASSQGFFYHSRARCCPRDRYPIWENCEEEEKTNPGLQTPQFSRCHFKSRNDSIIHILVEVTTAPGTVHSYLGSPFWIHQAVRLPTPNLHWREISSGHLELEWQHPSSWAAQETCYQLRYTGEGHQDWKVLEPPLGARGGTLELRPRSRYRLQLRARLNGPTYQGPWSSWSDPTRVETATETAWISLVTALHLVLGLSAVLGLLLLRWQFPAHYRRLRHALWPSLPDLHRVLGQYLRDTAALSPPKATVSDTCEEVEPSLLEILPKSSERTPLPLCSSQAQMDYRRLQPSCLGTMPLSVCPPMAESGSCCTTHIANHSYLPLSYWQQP
Procedure: Human leukemic cell line UT7/EPO-mpl was washed twice with PBS and suspended in IMDM containing 10% FBS at a cell density of 6×10^4 cells/ml. The cell suspension was transferred to a 96-well tissue culture plate (CORNING) in 100-μl aliquots. Then either TPO or the following Synthetic Examples, each dissolved in DMSO, were diluted 83-fold with IMDM containing 10% FBS and added to the aforementioned cell suspension in 20-μl aliquots. The suspension was incubated in a CO2 incubator (5% CO2, 37° C.) for 4 days. Cell proliferation was assayed using WST-8 reagent (Kishida Chemical, Co. Ltd.) according to instructions by the manufacturer. A 10-μl aliquot of 5 mM WST-8 reagent solution was added to each well of the tissue culture plate and the plate was incubated at 37° C. for 4 h. The formazan pigment generated was detected by measuring the absorbance at 450 nm with a 96-well microplate reader (Nihon Molecular Devices, SpectraMax 190). The concentration of each compound that yields a growth rate corresponding to 50% of the growth of human leukemic cell line UT7/EPO-mpl observed in the presence of 10 ng/ml TPO (EC50T) and the maximal growth rate achieved by the same compound (efficacy), expressed by taking the value with human leukemic cell line UT7/EPO-mpl in the presence of 10 ng/ml TPO as 100% standard, are summarized in Table 9.

human TPO receptor [2] = target: T1, human TPO receptor; assay: Proliferation of TPO-dependent cell line UT7/EPO-mpl, MTT method (Assay Examples 1, 3, 4); format: cell-based; details: UT7/EPO-mpl cells; for EC50: concentration giving 50% of the maximum cell growth observed with the same compound; for Efficacy (%) (maximal growth rate) / Emax: value in the presence of 10 ng/ml TPO taken as 100% standard, method of Assay Example 1; for Emax: read-out: Efficacy (%) (maximal growth rate)
Procedure: The reactivity of Synthetic Example 56, the compound of the present invention, with thrombopoietin (TPO) receptor was assayed using a human leukemic cell line, UT7/EPO-mpl.
UT7/EPO-mpl is a stable transformed cell line obtained by introducing into human leukemic cell line UT7/EPO a vector that induces expression of human TPO receptor (c-mp1) under control of a cytomegaloviral promoter by the method of Takatoku et al. (J. Biol. Chem., 272:7259-7263 (1997)). […] These two cell lines were subcultured in Iscove's modified Dulbecco's medium (IMDM; GIBCO) containing 10% fetal bovine serum (FBS; TRACE SCIENTIFIC) using a CO2 incubator (5% CO2, 37° C.).
The subcultured cells described above were washed twice with phosphate buffered saline (PBS) and suspended in IMDM containing 10% FBS at a cell density of 6×10^4 cells/ml. The cell suspension was transferred to a 96-well tissue culture plate (CORNING) in 100-μl aliquots. Then either TPO (PeproTech EC) or Synthetic Example 56 dissolved in dimethylsulfoxide (DMSO) was diluted 83-fold with IMDM containing 10% FBS and added to the aforementioned cell suspension in 20-μl aliquots. The suspension was incubated in a CO2 incubator (5% CO2, 37° C.) for 4 days. Cell proliferation was assayed according to the method of Mosmann et al. (J. Immunol. Methods, 65:55-63 (1983)). A 10-μl aliquot of 5 mg/ml MTT reagent (SIGMA) was added to each well of the tissue culture plate and the plate was incubated at 37° C. for 4 h. The formazan pigment generated was dissolved by adding 150 μl per well of 0.1 M HCl/isopropanol solution and the absorbance of the resulting pigment solution was measured at 550 nm with a 96-well microplate reader (BIO-RAD, M450).
The following Synthetic Examples were tested according to the method of Assay Example 1 to determine the maximal growth rate (efficacy), expressed by taking the value with human leukemic cell line UT7/EPO-mpl observed in the presence of 10 ng/ml TPO as 100% standard, and the concentration of each compound that yields a growth rate corresponding to 50% of the maximum cell growth observed with the same compound (EC50).
Synthetic Example 56, the compound of the present invention, and four compounds (Reference Synthetic Examples 1 to 4) described in a publication of international patent application (Publication No. WO01/34585, applied by SmithKline Beecham Corp.) were tested according to the method of Assay Example 1.

Compound | EC50T (concentration yielding 50% of the growth observed with 10 ng/ml TPO) (human TPO receptor [1]) [µg/mL] | Efficacy (%) (maximal growth rate) (human TPO receptor [1]) | EC50 (human TPO receptor [2]) [µg/mL] | Efficacy (%) (maximal growth rate) (human TPO receptor [2]) | also measured
COC(=O)c1ccc(C(=O)NNC(C)=C2C(=O)N(c3ccc(Cl)nn3)N=C2C)cc1 [compound 101] | 0.018 | 100 |  |  | 
CC(NNC(=O)c1ccc(C(=O)O)cc1)=C1C(=O)N(c2ccc(C)c(C)c2)N=C1C(F)(F)F [compound 96] | 0.0033 | 93 |  |  | 
CC1=NN(c2ccc(C(C)(C)C)cc2)C(=O)C1=CNNC(=O)c1ccc(C(=O)O)cc1 [compound 97] | 0.025 | 94 |  |  | 
CC1=NN(c2ccc(C(C)(C)C)cc2)C(=O)C1=C(C)NNC(=O)c1ccc(-c2nnn[nH]2)cc1 [compound 103] |  | 90 |  |  | EC50 (human TPO receptor [1]; read-out: EC50T (concentration yielding 50% of the growth observed with 10 ng/ml TPO) (converted)): 10.5 nM
COC(=O)c1ccc(C(=O)NNC(C)=C2C(=O)N(c3ccc(C)c(C)c3)N=C2C(F)(F)F)cc1 [compound 95] | 0.052 | 71 |  |  | 
CC(NNC(=O)c1ccc(O)cc1O)=C1C(=O)N(c2ccc(C)c(C)c2)N=C1C(F)(F)F [compound 94] | 0.0033 | 95 |  |  | 
CC1=NN(c2ccc3ccccc3n2)C(=O)C1=C(C)NNC(=O)c1ccc(C(=O)O)cc1 [compound 100] | 0.059 | 107 |  |  | 
CC1=NN(c2ccc(C(C)(C)C)cc2)C(=O)C1=C(C)NNC(=O)c1ccc(C(=O)O)s1 [compound 99] | 0.0039 | 110 |  |  | 
COC(=O)c1ccc(C(=O)NNC(C)=C2C(=O)N(c3ccc(C(C)(C)C)cc3)N=C2C)s1 [compound 98] | 0.031 | 96 |  |  | 
CC1=NN(c2ccc(C)c(C)c2)C(=O)C1=C(C)NNC(=O)c1ccc(O)cc1O [compound 56] |  |  | 0.0011 | 96 | 
CC1=NN(c2ccc(I)cc2)C(=O)C1=C(C)NNC(=O)c1ccc(O)cc1O [compound 1] |  |  | 0.0074 | 74 | 
CC1=NN(c2ccc(I)cc2)C(=O)C1=C(C)NNC(=O)c1cccc([N+](=O)[O-])c1 [compound 43] |  |  | 0.083 | 87 | 
CC1=NN(c2ccc(Cl)c(Cl)c2)C(=O)C1=C(C)NNC(=O)c1ccc(C(C)(C)C)cc1 [compound 80] |  |  | 0.64 | 71 | 
CC1=NN(c2ccc(C(C)(C)C)cc2)C(=O)C1=C(C)NNC(=O)c1cccc([N+](=O)[O-])c1 [compound 15] |  |  | 0.023 | 109 | 
CC1=NN(c2ccc(C(C)(C)C)cc2)C(=O)C1=C(C)NNC(=O)c1cccc(C(=O)O)c1 [compound 12] |  |  | 0.076 | 100 | 
CC1=NN(c2ccc(Cl)c(Cl)c2)C(=O)C1=C(C)NNC(=O)c1ccc(N)cc1 [compound 77] |  |  | 0.0051 | 78 | 
CC1=NN(c2ccc(C)c(C)c2)C(=O)C1=C(C)NNC(=O)c1ccccc1O [compound 53] |  |  |  |  | EC50 (human TPO receptor [2]; read-out: EC50 (ng/ml) (converted)): 31.7 nM; Emax (human TPO receptor [2]): 120%
CC1=NN(c2ccc(C(F)(F)F)cn2)C(=O)C1=C(C)NNC(=O)c1ccc(C(=O)O)cc1 [compound 102] | 0.069 | 100 |  |  | 
CC1=NN(c2ccc(C(C)(C)C)cc2)C(=O)C1=C(C)NNC(=O)c1ccc(C(=O)O)cc1 [compound 5] |  |  | 0.0034 | 86 | 
CC1=NN(c2ccc(Cl)c(Cl)c2)C(=O)C1=C(C)NNC(=O)c1ccc(C(F)(F)F)cc1 [compound 79] |  |  | 0.16 | 81 | 
CC1=NN(c2ccc(C(C)(C)C)cc2)C(=O)C1=C(C)NNC(=O)c1cccc(O)c1 [compound 81] |  |  | 0.0072 | 84 | 
CC1=NN(c2ccc(C(C)(C)C)cc2)C(=O)C1=C(C)NNC(=O)c1ccc(C(C)(C)C)cc1 [compound 72] |  |  | 0.075 | 88 | 
CC1=NN(c2cccc(C(F)(F)F)c2)C(=O)C1=C(C)NNC(=O)c1ccc(N)cc1 [compound 90] |  |  | 0.021 | 76 | 
CC1=NN(c2ccc(C(C)(C)C)cc2)C(=O)C1=C(C)NNC(=O)c1cccc(N)c1 [compound 70] |  |  | 0.023 | 87 | 
CC1=NN(c2ccc(C)c(C)c2)C(=O)C1=C(C)NNC(=O)c1ccc([N+](=O)[O-])cc1 [compound 60] |  |  | 0.1 | 62 | 
CC1=NN(c2ccc(C(C)(C)C)cc2)C(=O)C1=C(C)NNC(=O)c1ccc([N+](=O)[O-])cc1 [compound 29] |  |  | 0.23 | 67 | 
Cc1ccc(-n2nc(C)c(C=NN3C(=O)C(=Cc4cccc(C(=O)O)c4)SC3=S)c2O)cc1C [Reference Synthetic Example 2, 5-(3-carboxybenzylidene)-3-[(1-{3,4-dimethylphenyl}-5-hydroxy-3-methyl-1H-pyrazol-4-ylmethylene)amino]-2-thioxothiazolidin-4-one, reference compound] |  |  |  |  | Emax (human TPO receptor [2]): 12%

From patent publication US8053453B2, “Pyrazolone compounds and thrombopoietin receptor activator” (Nissan Chemical Industries, Ltd., priority 2002, dated 2011)
